According to patent publication US20040063681A1, “Methods for using gold (III) complexes as anti-tumor and anti-HIV agents” (priority 2002, published 2004):

Assays:
[1] = Electrochemical measurements (cyclic voltammetry); format: physicochemical
Experimental: Electrochemical measurements. Electrochemical measurements were performed at room temperature after purging with nitrogen using 0.1 M tetrabutylammonium hexafluorophosphate (TBAP)/acetonitrile as supporting electrolyte. The working electrode was a glassy carbon (Atomergic Chemetal V25, geometric area of 0.35 cm^2) electrode and the counter electrode was platinum gauze. A nonaqueous Ag/AgNO3 (0.1 M in acetonitrile) reference electrode was contained in a separate compartment connected to the test solution via fine sintered glass disks. The ferrocenium/ferrocene couple was used as the internal standard. The redox properties of the gold(III) porphyrin complexes in non-aqueous medium (CH2Cl2 with 0.1 M nBu4NPF6) have been studied by cyclic voltammetry with glassy carbon and platinum as the working and counter electrodes, respectively. […] The effect of para-substitution on the electrochemical potentials has been examined by Hammett correlation analysis.

[2] = test system: Human Hepatocellular Carcinoma (HepG2); assay: MTT cytotoxicity, HepG2; format: cell-based; details: growth inhibition
Source text: Human promyelocytic leukemia (HL-60), human hepatocellular carcinoma (HepG2), Human cervix epitheloid carcinoma cells (HeLa) and human oral epidermoid carcinoma cells (KB-3-1), were obtained from American Type Culture Collection (ATCC) (Rockville, Md.). The multi-drug-resistant variant KB-V1 cell line was obtained by stepwise selections for vinblastine resistance as described by Shen et al., J. Biol. Chem. 261:7762-7770 (1986)], and was generously provided by Dr Michael Gottesman (NIH, Bethesda, Md.). Human nasopharyngeal carcinoma cells (SUNE1 and its cisplatin resistance variant, CNE1) were derived from poorly differentiated NPC in Chinese patients as described by Gu et al., Chin. J. Cancer 2:270-272 (1983), and were generously provided by Dr S. W. Tsao (The University of Hong Kong, Hong Kong, PRC). Cell culture flasks and 96 well microtitre plates were from Nalge Nunc hit. Culture medium, other medium constituents and phosphate buffered saline (PBS) were obtained from Gibco BRL (Rockville, Md.). Cell Proliferation Kit I (MTT) was purchased from Roche (Mannheim, Germany).
The anti-cancer activities of the gold(III) porphyrin complexes were evaluated toward some established human cancer cell lines: promyelocytic leukemia (HL-60), hepatocellular carcinoma (HepG2), cervix epitheloid carcinoma (HeLa), epidermoid carcinoma (KB-3-1) and its multi-drug resistant variant (KB-V1), nasopharyngeal carcinoma (SUNE1) and its cisplatin-resistant variant (CNE1). The experiments were carried out by following the MTT procedure (see Mosmann et al., J. Immunol. Methods 65:55-63 (1983). The IC50 values of the gold(III) porphyrin complexes together with that of cisplatin, and KAuCl4 are provided in Table 4a; and the IC50 values of the gold(III) Schiff-base and bis(pyridyl)carboxamide complexes are shown in Table 4b. The cytotoxicity profiles of some selected gold(III) porphyrin complexes toward SUNE1 and its cisplatin-resistant variant CNE1 are also shown in FIG. 7.

calf thymus DNA = assay: Viscosity evaluation of DNA; details: (η/ηo)^1/3 vs binding ratio r
Source text: Viscosity evaluation. The binding interaction of the gold(III) porphyrins can be further investigated by examining the change of DNA viscosity upon binding of the metalloporphyrin. If the metalloporphyrin binds to DNA by intercalation, this would cause chain elongation, unwinding and stiffening of the DNA helix as a consequence of untwisting of the base pairs and helical backbone needed to accommodate the intercalator.
For comparison, the viscosity profiles for ethidium bromide (intercalator) and Hoechst 33342 (minor groove binder) are also shown is FIG. 10.

[3] = cyclic voltammetry, 0.1 M nBu4NPF6, glassy carbon, vs Cp2Fe^+/0

C1=Cc2nc1c(-c1ccccc1)c1ccc([n-]1)c(-c1ccccc1)c1nc(c(-c3ccccc3)c3ccc([n-]3)c2-c2ccccc2)C=C1.[Au+3].[Cl-] [Complex 1a]
Couple I (first reduction couple) [1, 3]: −1.00 V
Couple II (second reduction couple) [1, 3]: −1.48 V
ΔE1o (E^0Y − E^0H), couple I ([1]; relative to Y=H (Complex 1a)): 0 V
ΔE2^0 (E^0Y − E^0H), couple II ([1]; relative to Y=H (Complex 1a)): 0 V
IC50 [2]: 0.34 µM
change in viscosity of the DNA (calf thymus DNA): no appreciable change in viscosity of the DNA
